Experimental data published in a melting point compilation (Tetko et al.; mined from patent text by program, amines drawn as free bases though some values may be those of a salt).

Structure (SMILES)	melting point [°C]
NC(CO)C(c1ccccc1)c1ccccc1 (stereo not drawn)	107 to 108
CC(OC(=O)c1ccccc1)C(N)=S (stereo not drawn)	100 to 101
CC(C)c1ccccc1NN	206 to 210
O=C1c2ccccc2C(=O)C1c1cccc([N+](=O)[O-])c1	216 to 226
COC(=O)C(C#N)c1c[nH]c2ccc(OC)cc12 (stereo not drawn)	98 to 100
N#Cc1sc2ccccc2c1Cl	124 to 125
Cc1cnc(C2CCCCC2)n2c1c(CCBr)c1ccccc12	137 to 139
CC(=O)OCCSCn1cnc2c(Cl)ncnc21	82 to 87
CN1CC(CO)C=C2c3cccc4c3c(cn4C(C)(C)C)CC21 (stereo not drawn)	181 to 183
COc1ccc(Br)c2nc(SCc3ccccc3)nn12	78 to 79
CC(=O)OCC1OC(OCC(=O)c2cc(OCc3ccccc3)c(OCc3ccccc3)c(OCc3ccccc3)c2)C(OC(C)=O)C(OC(C)=O)C1OC(C)=O (stereo not drawn)	156 to 158
COc1ccc(C=O)c(OC)c1Cl	107 to 108
CC(O)C(C)(C)NC(=O)[C@@H]1CCCN1C(=O)[C@@H](O)[C@H](Cc1ccccc1)NC(=O)[C@H](CC(N)=O)NC(=O)OCc1ccccc1 (stereo partly drawn)	102 to 104
NS(=O)(=O)c1ccc(N2N=C(C(F)(F)F)CC2c2ccc(F)cc2F)cc1 (stereo not drawn)	161 to 162
CC(=O)NC[C@H]1CN(c2ccc(C3=CCCN(C(=O)CO)C3)c(F)c2)C(=O)O1	188 to 190
COc1cc(OC)c(-c2csc(N)n2)cc1Cl	162
C=Cn1cc(C(=O)O)c(=O)c2cc(F)c(N3CCC(N)C3)nc21 (stereo not drawn)	253 to 257
Cc1nnc2n1-c1sc(CCC(=O)N3CCCCC3)cc1C(c1ccccc1Cl)=NC2C (stereo not drawn)	157 to 160
CCOC(=O)c1cc(S)n2nc(C)nc2n1	234 to 236
Cc1cc(C(N)=O)c(NC(=O)CCC(F)(F)F)s1	151 to 153
c1ccc2c(c1)Cc1ccccc1N1CCCN=C21	139 to 141
CCc1cc(OC)cc(=O)o1	54 to 55

Structure (SMILES)	melting point [°C]
O=C(O)C1=Cc2ccccc2SC1C(F)(F)F (stereo not drawn)	187 to 190
CC1(O[Si](C)(C)C(C)(C)C)CN(c2ccc(N3C[C@H](CO)OC3=O)cc2F)C1	144
Cc1noc(CCCCCCCOc2ccc(C3=NCCO3)cc2Cl)c1CO	53 to 54
OC(c1cscn1)(c1cscn1)C(F)(F)F	87 to 89
CC1=CC(C)(C)N2CCCc3c(O)ccc1c32	125 to 126
CS(=O)c1csc(C(=O)O)c1 (stereo not drawn)	188 to 190
COc1cccc(C(F)(F)F)c1C(=O)O	129 to 130
NS(=O)(=O)c1ccc(N2CCN(CC[C@@H]3OCCc4cc(Br)ccc43)CC2)c(Br)c1	206 to 208
CC(=O)SCCC(=O)N1NC(=O)CC1C(=O)O (stereo not drawn)	205 to 207
COc1cc2c(OC)nc3c4ccccc4nc(OC)c3c2cc1OC	173 to 175
Cn1nc(-c2cccc(C(F)(F)F)c2)c(Cl)c1C(=O)O	180 to 183
Fc1ccc2[nH]c(SCC(F)(F)F)nc2c1	136 to 139
Nc1c(Br)cc(S(N)(=O)=O)cc1[N+](=O)[O-]	216 to 218
CC1(C)SCN(CCCCN2CCN(c3n[nH]c4cc(F)ccc34)CC2)C1=O	123 to 125
COc1cc(C)c([N+](=O)[O-])cc1C(=O)NCC1CCCO1 (stereo not drawn)	178 to 180
O=C(NC1CC1)[C@@H]1CN(C(=O)OCc2ccccc2)C[C@H]1O	132 to 133
O=C(CCl)NCC1(c2ccc(Cl)c(Cl)c2)CCC1	104 to 105
Cc1ncc(I)nc1C	51 to 54
CCn1nc2oc(CO)c(C)c2c1C	124 to 126
Nc1ccc(Sc2ccccc2)cc1	99
CC(CI)CCCC(C)C1CC=C2C3=C(CCC21C)C1(C)CCC(O)C(C)(C)C1CC3 (stereo not drawn)	148
OC1CSC(Oc2ccc(-c3ccc(Cl)nc3)nc2)C(O)C1O (stereo not drawn)	170

Structure (SMILES)	melting point [°C]
COc1cc(C(C)O)c(F)cc1Cl (stereo not drawn)	68.5 to 69.5
O=c1oc2c(c(O)c1C(c1ccccc1)C1CC1)CCCCCC2CC1CCCOC1 (stereo not drawn)	89 to 95
CC1C=C(Nc2ccc(OC(F)(F)F)cc2)N(C)N1 (stereo not drawn)	80 to 82
CCCN(CCC)C1Cc2cc3c(cc2C1)C(=O)N(Cc1cccnc1)C3=O	141 to 146
CC(Br)c1ccc(-c2nc3ccccc3o2)cc1 (stereo not drawn)	128 to 131
CC(C#CC1=C(C)C(O)C(O)CC1(C)C)=CCO (stereo not drawn)	115 to 117
CCOC(=O)c1cnn(-c2ccc(OC(F)(F)F)cc2)c1	114 to 116
CC(=O)OC[C@H]1O[C@@H](c2nc(C(N)=O)c(N)[nH]2)[C@H](OC(C)=O)[C@@H]1OC(C)=O	128 to 129
O=C(Nc1ccc(-n2nc(C(F)(F)F)cc2C(F)(F)F)cc1)C1CC1	204 to 205
C[C@](O)(CBr)C(=O)Nc1ccc([N+](=O)[O-])c(C(F)(F)F)c1	70 to 74
Oc1ccnc2ncnn12	290
COC(=O)c1cscc1NC(=O)NCCCCCBr	92 to 93.5
O=c1oc(-c2ccccc2)cc(O)c1SCC1CC1	136 to 137
Cc1nccn1-c1cc(C#N)cc(C(F)(F)F)c1	132 to 134
O=S(=O)(c1nc2c([nH]1)-c1ccc(F)cc1Oc1ccccc1-2)C(F)(F)C(F)F	171 to 173
O=C(O)c1ccc(OCC(O)CO)cc1O (stereo not drawn)	151 to 153
CN1CCC(c2c[nH]c3ccc(O)cc23)CC1	234 to 237
COc1cc(CO)c(-n2cccc2)cc1OC	92 to 93
ONC(CCc1ccccc1)CCc1ccccc1	54 to 55
COC(=O)c1ccc(C#Cc2cc(C#Cc3ccc(C(=O)OC)cc3)cc(C#Cc3ccc(C(=O)OC)cc3)c2)cc1	177
COc1ccc2[nH]c(=O)cc(C)c2c1	270 to 273
Nc1c(Cl)ncnc1Nn1ccc2ccccc21	175 to 176

Other lines, results leading:

melting point [°C]	Structure (SMILES)
104 to 106	CN1c2ccccc2CN(C(=O)c2ccc(C3CCCCC3)cc2)c2ccccc21
84.5 to 85	CCOC(=O)/C=C/c1ccc(OC(C)C)cc1Oc1ncc(C(F)(F)F)cc1Cl
135	CNCc1cccc(-c2ccc(CC3SC(=O)NC3=O)c(C)c2)c1 (stereo not drawn)
176 to 177	CN(Cc1cc(C(F)(F)F)cc(C(F)(F)F)c1)C(=O)c1nc(Cl)c2ccccc2c1-c1ccccc1
79 to 81	CCOc1cccc(-c2ccc(C3=CCN(S(=O)(=O)CC(=O)OC)CC3)cc2C)c1
124 to 125	CC(C)(O)c1ccc(CNC(=O)c2cccnc2Oc2ccc3nsnc3c2)c(F)c1
240 to 242	N#Cc1cnc2cc(/C=C/c3ccncc3)ccc2c1Nc1ccc(Cl)cc1Cl
138 to 141	CC(C)(C)c1cc(-c2nn(Cc3cccs3)c3ncccc23)cc(C(C)(C)C)c1O
75 to 76	COc1ccc(CCc2nccn3c(Br)cc(Br)c23)cc1
112	CCOC(=O)c1ccc(NCc2nccnc2OCc2ccccc2)cc1
115 to 116	CCOC(=O)c1cccc(-c2nc(-c3cc(C)sc3C)cs2)c1
192 to 193	Cc1ccn(-c2ccc(C(=O)N3Cc4cccnc4Nc4ccccc43)c(Cl)c2)n1
199 to 201	Cc1cc(SC2=C(O)CC(CCc3ccc(O)cc3)(c3ccccc3)OC2=O)c(C(C)(C)C)cc1CO (stereo not drawn)
78.4 to 79.5	CCCCCCOc1ccc(CC(C)C(=O)Oc2ccc(-c3ccc(F)cc3)cc2)cc1 (stereo not drawn)
164 to 165	COC(=O)c1cc(-c2ccccn2)n(-c2ccc(Cl)nn2)n1
100	CCN(CC)C(=O)CCS(=O)(=O)c1cc(-c2ccccc2)nc2ccccc12
98 to 99	Cc1oc(-c2ccc(Cl)cc2)nc1COc1cccc(/C=C/C(C)N(O)C(N)=O)c1 (stereo not drawn)
213 to 216	Cc1cc(NC(=O)c2c(Cl)cccc2Cl)c2nccc(N3CCN(C)C3=O)c2c1C
58 to 60	COC(=O)Cc1ccc(Oc2ccc(C#N)cc2)cc1

melting point [°C]	Structure (SMILES)
192 to 210	CNC(=O)c1cc(C)ccc1Nc1nc(Cl)ncc1Cl
74 to 75	O=C(O)[C@H](Cc1ccc(C(F)(F)F)c(F)c1)[C@@H](O)c1ccc(F)cc1 (racemic)
170	CCC(Cl)C(=O)Nc1c(C(=O)CC(=O)Nc2nccs2)cccc1C(F)(F)F (stereo not drawn)
142 to 143	CC(C)CC(C(=O)O)c1ccc(-c2ccc(C(F)(F)F)cc2)c(OCC2CC2)c1 (stereo not drawn)
144 to 145	Cc1oc(-c2ccccc2)nc1COc1ccc(Cn2cc(CC(=O)O)c(-c3ccccc3)n2)cn1
210 to 212	Cc1cn(C[C@H]2CN(c3ccc(-c4ccc(C#N)nc4)c(F)c3)C(=O)O2)nn1
169 to 171	COC(=O)c1c(C(=O)OC)c(-c2ccc(OC)cc2)c2cc3c(cc2c1O)OCO3
197 to 198	COc1cccc(C2=C(C(=O)c3ccc(O)cc3)c3ccc(OC)cc3CC2)c1
186	Cn1cncc1C(O)(c1ccc(Cl)cc1)c1ccc2nc(NN)nc(-c3cccc(Cl)c3)c2c1 (stereo not drawn)
80.5 to 82	Clc1ccc(OCc2ccc3ccccc3n2)cc1Cl
162 to 163	CC/C(=C(\c1ccc(/C=C/C(=O)O)cc1)c1ccc(OC(=O)CCC(F)(F)F)cc1)c1ccccc1
166 to 168	COc1ccc(C(=O)Nc2ccc(F)cc2F)cc1N
262 to 264	Cn1c(C(=O)N=[N+]=[N-])c(-c2ccccc2)c2cc([N+](=O)[O-])ccc21
173	CC1=CC(=O)C(C)=C(CCC(C)(C)COc2ccc(CC3SC(=O)NC3=O)cc2)C1=O (stereo not drawn)
271 to 272	N#Cc1cc2[nH]cc(C(=O)O)c2cc1-c1ccc(C2(CO)CC2)cc1
235 to 238	CCc1c2nc(-c3cc(S(C)(=O)=O)ccc3OCC(C)C)[nH]c(=O)c2nn1Cc1ccccn1
285 to 286	COc1cccc(CNC(=O)c2nc3scc(CNC(=O)c4ccc(C(=O)O)cc4)c3c(=O)[nH]2)c1
209 to 210	O=C(Nc1ccc(F)cc1)C1=C(C(=O)Nc2cc(OC3CCCC3)c(Cl)cc2F)CCCC1
